What is called MIC is the lowest concentration that inhibits growth of the organism.

For this assay, the system named is Escherichia coli ATCC 25922. In words: Minimum inhibitory concentration (MIC), CLSI broth micro-dilution, E. coli. The format is cell-based. The note with it: Escherichia coli. In outline:
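Antibacterial potency is measured as MIC by the CLSI broth dilution method. Bacteria at OD600 0.0005 in Tween-80-supplemented cation-adjusted Mueller Hinton broth face ten twofold compound dilutions for 22 h at 35° C.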

Where [1] appears, read: ATCC25922, 22 h, Table 7, cation adjusted Mueller Hinton Broth + 0.002% Tween-80, 35° C.

Consider `CNCCOc1ccc2cc1-c1cc(ccc1O)C[C@@H](C(=O)NCC#N)NC(=O)[C@H](C)NC(=O)[C@H]2N(C)C(=O)[C@H](CCN)NC(=O)c1c(C)nc(-c2ccc(C(C)(C)C)cc2)nc1C` (racemic) [Compound 600, rac-(8S,11S,14S)-N-(cyanomethyl)-3-hydroxy-11-methyl-18-[2-(methylamino)ethoxy]-14-[methyl-[rac-(2S)-4-amino-2-[[2-(4-tert-butylphenyl)-4,6-dimethyl-pyrimidine-5-carbonyl]amino]butanoyl]amino]-10,13-dioxo-9,12-diazatricyclo[13.3.1.12,6]icosa-1(18),2(20),3,5,15(19),16-hexaene-8-carboxamide], for which the MIC under setting [1] turned out to be 0.38 µM. Same read-out and setting: under `Cc1nc(-c2ccc(C(C)(C)C)cc2)nc(C)c1C(=O)N[C@@H](CCN)C(=O)N(C)[C@@H]1C(=O)N[C@@H](C)C(=O)N[C@H](C(=O)NCC#N)Cc2ccc(O)c(c2)-c2cc1ccc2OCCNCCN` (racemic) [Compound 601, rac-(8S,11S,14S)-18-[2-(2-aminoethylamino)ethoxy]-N-(cyanomethyl)-3-hydroxy-11-methyl-14-[methyl-[rac-(2S)-4-amino-2-[[2-(4-tert-butylphenyl)-4,6-dimethyl-pyrimidine-5-carbonyl]amino]butanoyl]amino]-10,13-dioxo-9,12-diazatricyclo[13.3.1.12,6]icosa-1(18),2(20),3,5,15(19),16-hexaene-8-carboxamide] stands 0.5 µM; under `Cc1nc(-c2ccc(C(C)(C)C)cc2)nc(C)c1C(=O)N[C@@H](CCN)C(=O)N(C)[C@@H]1C(=O)N[C@@H](C)C(=O)N[C@H](C(=O)NCC#N)Cc2ccc(O)c(c2)-c2cc1ccc2OCCNCCCN` (racemic) [Compound 602, rac-(8S,11S,14S)-18-[2-(3-aminopropylamino)ethoxy]-N-(cyanomethyl)-3-hydroxy-11-methyl-14-[methyl-[rac-(2S)-4-amino-2-[[2-(4-tert-butylphenyl)-4,6-dimethyl-pyrimidine-5-carbonyl]amino]butanoyl]amino]-10,13-dioxo-9,12-diazatricyclo[13.3.1.12,6]icosa-1(18),2(20),3,5,15(19),16-hexaene-8-carboxamide], 0.063 µM. For `CC(=N)NCCOc1ccc2cc1-c1cc(ccc1O)C[C@@H](C(=O)NCC#N)NC(=O)[C@H](C)NC(=O)[C@H]2N(C)C(=O)[C@H](CCN)NC(=O)c1c(C)nc(-c2ccc(C(C)(C)C)cc2)nc1C` (racemic) [Compound 603, rac-(8S,11S,14S)-N-(cyanomethyl)-18-[2-(ethanimidoylamino)ethoxy]-3-hydroxy-11-methyl-14-[methyl-[rac-(2S)-4-amino-2-[[2-(4-tert-butylphenyl)-4,6-dimethyl-pyrimidine-5-carbonyl]amino]butanoyl]amino]-10,13-dioxo-9,12-diazatricyclo[13.3.1.12,6]icosa-1(18),2(20),3,5,15(19),16-hexaene-8-carboxamide], the MIC (ATCC25922, Table 7, cation adjusted Mueller Hinton Broth + 0.002% Tween-80, 35° C., 22 hours) came out at 0.44 µM.

As for `Cc1nc(-c2ccc(C(C)(C)C)cc2)nc(C)c1C(=O)N[C@@H](CCN)C(=O)N(C)[C@@H]1C(=O)N[C@@H](C)C(=O)N[C@H](C(=O)NCC#N)Cc2ccc(O)c(c2)-c2cc1ccc2OC1CNC1` (racemic) [Compound 604, rac-(8S,11S,14S)-18-(azetidin-3-yloxy)-N-(cyanomethyl)-3-hydroxy-11-methyl-14-[methyl-[rac-(2S)-4-amino-2-[[2-(4-tert-butylphenyl)-4,6-dimethyl-pyrimidine-5-carbonyl]amino]butanoyl]amino]-10,13-dioxo-9,12-diazatricyclo[13.3.1.12,6]icosa-1(18),2(20),3,5,15(19),16-hexaene-8-carboxamide], under setting [1], the MIC was 0.75 µM.

The values are drawn from patent US20260274892A1, “MACROCYCLIC BROAD SPECTRUM ANTIBIOTICS” (RQx Pharmaceuticals, Inc., priority 2017, published 2026).
